{"source": "patent US20150004620A1", "about": "“METHOD OR DEVICE FOR IDENTIFYING INHIBITOR OF EPITHELIAL MESENCHYMAL TRANSITION” (Agency for Science, Technology and Research, priority 2011, published 2015)", "format_in_all_cases": "cell-based", "key": {"[1]": {"test_system": "EGF-induced EMT in NBT-II cells", "assay": "EMT spot migration assay, EGF-induced", "conditions": "EGF-induced EMT (20 ng/ml EGF), NBT-II cells, CDR dose response from 6.67 μM; read-out: Cell Dispersion IC 50, EGF", "experimental": "(§1) NBT-II cells were stably transfected with mcherry-fluorescent H2B and maintained in DMEM supplemented with 10% fetal bovine serum (FBS, Thermo Scientific), 1 μg/ml puromycin (Sigma) and 100 units/ml penicillin-streptomycin (1× pen-strep, Invitrogen). Cells were grown to 80% confluency in tissue culture flasks prior to plating. Cells were trypsinized and concentrated to a density of 5×10^6 cell/ml in CO2-independent medium (Invitrogen) supplemented with 10% FBS. The cell suspension was then evenly dispersed into the wells of two columns of a 96-well V-bottom plate. Using a robotic liquid-handling station (Bravo, Agilent Technologies), 0.5 μl of cell suspension was transferred from the two columns of the cell suspension-loaded plate and deposited into the center of the wells of two columns of a 96-well clear bottom, black assay plate (Corning). This process was repeated six times so that all 96 wells of the assay plate were deposited with a cell suspension spot. The plate was then sealed to minimize evaporation of the cell suspension spots and transferred to a 37° C., 5% CO2 incubator to allow for cells to attach to the culture surface. After 1 hour, the plate was gently washed with medium once to remove unattached cells, refreshed with 100 μl of assay medium (DMEM supplemented with 10% FBS and 1× pen-strep), and then further incubated to allow for cell-cell contacts to establish in the cell colonies.\n(§2) Four tiled, non-overlapping images were acquired around the center of each well, and were then stitched together during image analysis to generate a montage covering an area of 3.2 mm×3.2 mm. These images (T1) represent the initial state of the cell colonies before EMT induction.\n(§3) After the T1 images were acquired, 1 μl of test compounds were transferred from compound stock plates and added to the assay plates. Appropriate negative controls (1 μl DMSO) and positive controls (1 μl 1.0 mM compound in DMSO) were also added into columns 1 and 12 of each assay plate, respectively. […] The cultures were then further incubated overnight.\n(§4) The next day, 50 μl of growth factor-containing medium was added to each well of the assay-plates. For each of the growth factor-induced EMT spot migration assays, the final growth factor concentrations in each well is optimized to be 20 ng/ml EGF (Sigma), 4 ng/ml HGF (Calbiochem) or 150 ng/ml IGF-1 (R&D Systems), respectively. The cultures were then incubated for another 24 hours, to allow for EMT and sufficient cell motility/dispersion to occur in the cell colonies.\n(§5) Finally, the cell colonies were imaged again using the microplate imager, as described above. These images (T2) represent the final state of the cell colonies after compound treatment and EMT induction. The acquired T1 and T2 image sets for each assay plate were then sent for image analysis.\n(§6) The acquisition of each well was obtained by four adjacent field images with no interstice in between. Each field image was loaded and nuclei were initially segmented independently of other fields to prevent artifact at the field border. Nuclei segmentation was achieved by combining a wavelet transform which is robust to noise and unhomogeneous background, and a watershed algorithm based on intensities to split nuclei clusters. Mask of nuclei segmentation of the different fields were then stitched together in order to obtain a large segmentation of the whole well. Cell bodies were estimated by applying a morphological dilation on the nucleus segmentation using a disk of 30 pixels (48 μm) in diameter. In cells that are contiguous, such as in a cell colony, nuclei segmentation dilation will result in the formation of continuous region areas with surrounding cells which can then be identified as colonies.\n(§7) Total cell number and spreading coefficient values for each well were then exported into an Excel sheet."}, "[2]": {"test_system": "ovarian carcinoma cell lines", "assay": "Phase contrast cell morphology, ovarian carcinoma cell lines", "conditions": "A2780J, DOV13 and HEY cell lines, 2 μM for 48 hours vs 0.02% DMSO", "experimental": "Cell lines were treated with 2 μM AZD0530 or 0.02% DMSO control for 48 hours. Scale bar is 200 μm. Thus, FIG. 9 provides an example of how the method as described herein may be validated by the use of various ovarian carcinoma cell lines."}, "MMP-13": {"test_system": "MMP-13", "assay": "Western blot of MMP-13 in ovarian carcinoma cell lines", "conditions": "panel of ovarian carcinoma cell lines, 2 μM for 48 hours vs 0.02% DMSO", "experimental": "(§8) FIG. 11 is a western blot image showing the increase in epithelial marker E-cadherin expression and the decrease of mesenchymal marker MMP-13 expression in panel of ovarian carcinoma cell lines treated with AZD0530. Cell lines were treated with 2 μM AZD0530 or 0.02% DMSO control for 48 hours. Thus, FIG. 11 provides an example of possible downstream analysis that may be conducted subsequent to the detection of possible inhibitor by the method as described herein. In this figure, western blot analysis was used to validate the possible inhibitor detected by the method as described herein.\n(§9) For western blot experiments with other cell lines, cells are treated either with AZD0530, such as 2 μM AZD0530 or DMSO, such as 0.02% DMSO control for 48 h. The samples are then processed using the same procedure as described above. The samples were probed with MMP-13, E-cadherin, plakoglobin (Cell Signaling), α-tubulin, and β-actin (Cell Signaling) antibodies."}, "plakoglobin": {"test_system": "plakoglobin", "assay": "Western blot of plakoglobin in cell lines", "conditions": "2 μM for 48 hours vs 0.02% DMSO", "experimental": "FIG. 10 is a western blot image showing the increase in epithelial marker plakoglobin expression induced by AZD0530 in cell lines. Cell lines were treated with 2 μM AZD0530 or 0.02% DMSO control for 48 hours. Thus, FIG. 10 provides an example of possible downstream analysis that may be conducted subsequent to the detection of possible inhibitor by the method as described herein. In this figure, western blot analysis was used to validate the possible inhibitor detected by the method as described herein.\nas §9"}, "E-cadherin": {"test_system": "E-cadherin", "assay": "Western blot of E-cadherin in ovarian carcinoma cell lines", "conditions": "panel of ovarian carcinoma cell lines, 2 μM for 48 hours vs 0.02% DMSO", "experimental": "as §8, §9"}, "[3]": {"test_system": "IGF-1-induced EMT in NBT-II cells", "assay": "EMT spot migration assay, IGF-1-induced", "conditions": "IGF-1-induced EMT (150 ng/ml IGF-1), CDR dose response from 6.67 μM, read-out: Cell Dispersion IC 50, IGF-1", "experimental": "as §1, §2, §3, §4, §5, §6, §7"}, "[4]": {"test_system": "HGF-induced EMT in NBT-II cells", "assay": "EMT spot migration assay, HGF-induced", "conditions": "HGF-induced EMT (4 ng/ml HGF), CDR dose response from 6.67 μM, read-out: Cell Dispersion IC 50, HGF", "experimental": "as §1, §2, §3, §4, §5, §6, §7"}}}
{"smiles": "CN1CCN(CCOc2cc(OC3CCOCC3)c3c(Nc4c(Cl)ccc5c4OCO5)ncnc3c2)CC1", "note": "[AZD0530]", "values": [{"measurement": "IC50", "setting": "[1]", "result": 560, "unit": "nM"}, {"measurement": "Cell morphology (phase contrast)", "setting": "[2]", "result": "compaction of cell morphology"}, {"measurement": "Mesenchymal marker MMP-13 expression", "setting": "MMP-13", "result": "decrease"}, {"measurement": "Epithelial marker plakoglobin expression", "setting": "plakoglobin", "result": "increase"}, {"measurement": "Epithelial marker E-cadherin expression", "setting": "E-cadherin", "result": "increase"}, {"measurement": "IC50", "setting": "[3]", "result": 240, "unit": "nM"}, {"measurement": "IC50", "setting": "[4]", "result": 510, "unit": "nM"}]}
